Measured values from article PMC11435058, “Synthesis of New Thiazole-Privileged Chalcones as Tubulin Polymerization Inhibitors with Potential Anticancer Activities” (Pharmaceuticals, 2024).
Read-outs that look alike come from different tables or passages of the source.

Tests used:
OVCAR-5 = assay: NCI-60 anticancer screen (SRB; single dose and five doses); details: Homo sapiens, OVCAR-5, 48 h, read-out: Growth Percentage
HOP-92 = assay: as above; details: Homo sapiens, HOP-92, 48 h, read-out: Growth Percentage
NCI/ADR-RES = assay: as above; details: Homo sapiens, 48 h, read-out: Growth Percentage
COLO 205 = assay: as above; details: Homo sapiens, COLO 205, 48 h, read-out: Growth Percentage
UACC-257 = assay: as above; details: Homo sapiens, UACC-257, 48 h, read-out: Growth Percentage
[1] = system: 60 human tumor cell lines panel; assay: NCI-60 anticancer screen, whole panel (means and ranges over the cell lines); assay type: cell-based; details: Homo sapiens, 48 h
HL-60(TB) = assay: NCI-60 anticancer screen (SRB; single dose and five doses); details: Homo sapiens, HL-60, 48 h, read-out: Growth Percentage
T-47D = assay: as above; details: Homo sapiens, T47D, 48 h, read-out: Growth Percentage
MOLT-4 = assay: as above; details: Homo sapiens, MOLT-4, 48 h, read-out: Growth Percentage
HT29 = assay: as above; details: Homo sapiens, HT-29, 48 h, read-out: Growth Percentage
MCF7 = assay: as above; details: Homo sapiens, MCF7, 48 h, read-out: Growth Percentage
ACHN = assay: as above; details: Homo sapiens, 48 h, read-out: Growth Percentage
SK-MEL-5 = assay: as above; details: Homo sapiens, SK-MEL-5, 48 h, read-out: Growth Percentage
CCRF-CEM = assay: NCI-60 anticancer screen (SRB; single dose 10 μM and five doses); details: Homo sapiens, 48 h, read-out: Growth Percentage
HCT-116 = assay: NCI-60 anticancer screen (SRB; single dose and five doses); details: Homo sapiens, HCT-116, 48 h, read-out: Growth Percentage
K-562 = assay: as above; details: Homo sapiens, K562, 48 h, read-out: Growth Percentage
PC-3 = assay: as above; details: Homo sapiens, PC-3, 48 h, read-out: Growth Percentage
KM12 = assay: as above; details: Homo sapiens, KM12, 48 h, read-out: Growth Percentage
LOX IMVI = assay: as above; details: Homo sapiens, 48 h, read-out: Growth Percentage
DU-145 = assay: as above; details: Homo sapiens, DU-145, 48 h, read-out: Growth Percentage
MDA-MB-468 = assay: as above; assay type: cell-based, human; details: Homo sapiens, 48 h; MDA-MB-468; dose of 10 μM; read-out: Growth Percentage
Protocol: The methodology of the NCI anticancer screening has been described in detail elsewhere (http://www.dtp.nci.nih.gov). For detailed information, see Appendix A in the Supplementary Materials.
4.2.1. Screening of the anticancer activity against a panel of 60 cell Lines.
The methodology of the NCI anticancer screening has been described in detail elsewhere (http://www.dtp.nci.nih.gov.) Briefly, the primary anticancer assay was performed at approximately 60 human tumor cell lines panel derived from nine neoplastic diseases, in accordance with the protocol of the Drug Evaluation Branch, National Cancer Institute, Bethesda. Tested compounds were added to the culture at a single concentration (10μM) and the cultures were incubated for 48 h. End -point determinations were made with a protein binding dye, SRB. Results for each tested compound was reported as the percent of growth of the treated cells when compared to the untreated control cells. The percentage growth was evaluated spectrophotometrically versus controls not treated with test agents. […]

EKVX = assay: as above; details: Homo sapiens, 48 h, read-out: Growth Percentage
UACC-62 = assay: as above; details: Homo sapiens, UACC-62, 48 h, read-out: Growth Percentage
SK-MEL-28 = assay: as above; details: Homo sapiens, SK-MEL-28, 48 h, read-out: Growth Percentage
A498 = assay: as above; details: Homo sapiens, A498, 48 h, read-out: Growth Percentage, A498; dose of 10 μM

Work on `Cc1[nH]c(=S)sc1C(=O)/C=C/c1ccc(N(C)C)cc1` [2k, (E)-3-(4-(Dimethylamino)Phenyl)-1-(4-Methyl-2-Thioxo-2,3-Dihydrothiazol-5-yl)Prop-2-En-1-One] yielded an activity at 10 µM (OVCAR-5) of 142%, an activity at 10 µM (HOP-92) of 119% and an activity at 10 µM (NCI/ADR-RES) of 56.9%. For the same compound, the activity at 10 µM (COLO 205) was 115%, the activity at 10 µM (UACC-257) was 64.1% and the activity at 10 µM ([1]; read-out: growth percentages against most of the tested cells (lowest to highest)) was 35.4 to 130%. For the same compound, the activity at 10 µM ([1]; mean over the tested cell lines, dose of 10 μM, read-out: Mean growth percentage) was 77.7%, the activity at 10 µM (HL-60(TB)) was 87% and the activity at 10 µM (T-47D) was 32.4%. For the same compound, the activity at 10 µM (MOLT-4) was 62.1%, the activity at 10 µM (HT29) was 94% and the activity at 10 µM (MCF7) was 60%. For the same compound, the activity at 10 µM (ACHN) was 75.7%, the activity at 10 µM (SK-MEL-5) was 51.3% and the activity at 10 µM (CCRF-CEM) was 68.5%. The activity at 10 µM (HCT-116) was 72.2%, the activity at 10 µM (K-562) was 47% and the activity at 10 µM (PC-3) was 71.7%. The activity at 10 µM (KM12) was 62.6%, the activity at 10 µM (LOX IMVI) was 60.2% and the activity at 10 µM (DU-145) was 92.8%. For the same compound, the activity at 10 µM (MDA-MB-468) was 35.4%, the activity at 10 µM (EKVX) was 67% and the activity at 10 µM (UACC-62) was 58.7%. The activity at 10 µM (SK-MEL-28) was 92.7% and the activity at 10 µM (A498) was 130%.
